“And” between values parts separate entries of the source, which are not always exact repeats. Equal values may be shown once.
Experiments:
[1] = patients receiving therapy; cited from earlier work
[2] = system: differentiated PC12 cells; assay: Neurite toxicity: percentage of differentiated PC12 cells with neurites after 24 h incubation; settings: for reduction in the percentage of cells with neurites: strong dose; for inhibition of neurite outgrowth, dose responsiveness: increasing concentrations, 24 hrs, FIG. 1; for reduction in cells with neurites compared to no treatment control: Example 2, p<0.001
Method: PC-12 cells were maintained in Dulbecco's Modified Eagle Media (DMEM; Gibco) with 10% calf serum (Turbo calf serum, Invitrogen), 5% horse serum (JRH Biosciences, Victoria, Australia) and 1% penicillin/streptomycin (Invitrogen) at 37° C., in a 5% CO2 atmosphere. Differentiation into neurons was achieved by seeding cells at a density of 15,000 cells/well in 24-well plates (Falcon Becton Dickinson), on 13 mm glass cover slips (Menzel Glaser, Germany) coated with laminin (Invitrogen) and poly-DL-ornithine (Sigma) in DMEM plus 1% horse serum and 50 ng/mL of nerve growth factor (NGF) (Sigma). The cells were incubated for 72 hours under differentiation conditions, before use in the neurite outgrowth assays below.
Working concentrations were diluted in PC12 cell differentiation medium as above. Treatments consisted of a 24 hour incubation in differentiation media with various concentrations of either agent.
Outgrowing projections were considered neurites if they were greater than a cell body width (10 μm), essentially as previously described. Images of all neurons in thirty randomly selected fields were digitally captured using an Olympus BX60 fluorescence microscope with a UPIanFI 40×/0.75 objective lens and a Zeiss Axiocam HRc digital camera and Zeiss Axiovision 3.1 software. Neurons in all fields were counted per condition and the number of cells with neurites expressed as a percentage of total cells present and error expressed as the standard error of the mean (sem). Each experiment was conducted in triplicate and the results pooled. Statistical significance of data was analysed using ANOVA followed by the Bonferroni post-hoc test.
Neurite toxicity was determined as the percent of cells comprising neurite outgrowths as described in Example 1.

[3] = system: differentiated PC12 cells; assay: Recovery from cisplatin-induced neurite toxicity (24 h drug, 24 h wash-out, 24 h phenoxodiol); assay type: cell-based; settings: after 48 hrs of recovery
Method: To determine whether phenoxodiol could have an effect on recovery from cisplatin- or paclitaxel-induced neurite toxicity by exacerbation, reversal, retardation or facilitation of repair, recovery experiments were performed. When conducting the recovery experiments, the concentrations of phenoxodiol tested were decreased by 1 log to 10 nM 100 nM and 1 μM.

[4] = system: differentiated PC12 cells; assay: Neurite length (longest neurite per neuron) in differentiated PC12 cells; assay type: cell-based
Method: Further to the above described analysis of cells containing neurites, the longest neurite per neuron present in each frame was measured using Image J open source software (NIH, USA).

[5] = system: differentiated PC12 cells; assay: βIII-tubulin immunocytochemistry of treated differentiated PC12 cells; assay type: cell-based; settings: 24 hrs
Text: Further, immunocytochemistry was used to visualise the neurite toxicity effects described above. To do so, following the treatment period, cells were washed with PBS, fixed with 4% paraformaldehyde and permeabilised with ice-cold methanol. Neurons were immunostained for the neuronal marker βIII-tubulin (Promega; Madison, Wisconson, USA) and a Cy3-conjugated anti-mouse antibody (Invitrogen) was used to visualise the staining.

PC12 cells = system: PC12 cells
Method: A serial dilution was also conducted for phenoxodiol to determine the concentration which would not affect normal growth of the differentiated cells. […] Working concentrations were diluted in PC12 cell differentiation medium as above.

Structure (SMILES): N.N.[Cl][Pt][Cl] [cisplatin, Cis-diamine-dichloro-platinum]
- patients experiencing mild neuropathy [1]: around 40%
- patients experiencing severe neuropathy [1]: approximately 4%
- reduction in percentage of cells with neurites ([2]; cisplatin 1 μg/mL (3.33 μM), moderate dose, 24 h, Example 1): 31.9%
- reduction in the percentage of cells with neurites ([2]; cisplatin 20 μg/mL (66.65 μM), 24 h, Example 1): 65.8%
- neurite toxicity (percent neurites) ([2]; cisplatin alone 1 μg/ml, Example 2, ANOVA, t-test P<0.02): non-significant (n.s.) trend for moderate toxicity
- decrease in percent neurites compared to control ([2]; cisplatin alone 20 μg/ml, Example 2, P<0.001): 42%
- inhibition of neurite outgrowth, dose responsiveness [2]: dose response in inhibition of neurite outgrowth
- neurite toxicity compared to the no treatment control ([3]; cisplatin 1 μg/ml): no neurite toxicity
- neurite toxicity compared to the no treatment control ([3]; cisplatin 20 μg/ml, p<0.001): greater than 50%
- average neurite length of the remaining neurites ([4]; cisplatin alone): no significant effect on the average neurite length
- percentage of cells bearing neurites compared to control (βIII-tubulin staining) ([5]; cisplatin 20 μg/ml): decreased the percentage of cells bearing neurites

Structure (SMILES): CC(=O)O[C@H]1C(=O)[C@@]2(C)[C@H]([C@H](OC(=O)c3ccccc3)[C@]3(O)C[C@H](OC(=O)[C@H](O)[C@@H](NC(=O)c4ccccc4)c4ccccc4)C(C)=C1C3(C)C)[C@]1(OC(C)=O)CO[C@@H]1C[C@@H]2O [paclitaxel]
- inhibition of neurite outgrowth, dose responsiveness [2]: dose response in inhibition of neurite outgrowth
- decrease in the percentage of cells possessing neurites ([2]; paclitaxel 0.156 μg/mL (0.18 μM), moderate dose, 24 h, Example 1): 33%
- reduction in the percentage of cells with neurites ([2]; paclitaxel 2.5 μg/mL (2.93 μM), 24 h, Example 1): 73.6%
- reduction in cells with neurites compared to no treatment control ([2]; paclitaxel moderate dose (0.156 μg/ml)): 58%
- reduction in cells with neurites compared to no treatment control ([2]; paclitaxel strong dose (2.4 μg/ml/2.93 μM)): 72%
- cytotoxicity at the chosen concentrations (PC12 cells): did not produce cytotoxicity
- neurite length compared to the no treatment control ([4]; paclitaxel alone, both concentrations used, p<0.001): reduced neurite length

Structure (SMILES): Oc1ccc(C2=Cc3ccc(O)cc3OC2)cc1 [phenoxodiol, 2H-1-benzopyran-7-0,1,3-[4-hydroxyphenyl]]
- sensitivity of neurite toxicity to the protective effect relative to cytotoxic and anti-proliferative effects in cancer cell lines ([2]; PC12 neuronal cell model vs a variety of cancer cell lines): approximately 10 fold
- neurite toxicity in combination, compared to phenoxodiol 10 μM alone ([2]; phenoxodiol 10 μM + cisplatin 1 μg/ml (P<0.01) or 20 μg/ml (P<0.001)): increased toxicity
- neurite toxicity in combination, compared to phenoxodiol 10 μM alone ([2]; phenoxodiol 10 μM + paclitaxel, both concentrations (P<0.001)): increased toxicity
- effect on percent neurites ([2]; phenoxodiol alone 10 μM, 24 h, P<0.001 vs no treatment control): significant neurite toxicity
- cytotoxicity (PC12 cells; 10 μM, data not shown): considerable cytotoxicity
- effect on cell death or neurite outgrowth (PC12 cells; doses up to 1 μM, data not shown): no effect on cell death or neurite outgrowth
- maximal concentration tested that did not affect survival of PC12 cells (PC12 cells; serial dilution): 1 μM and 3.2 μg/ml
- average neurite length compared to no treatment control ([4]; phenoxodiol 10 μM alone, p<0.001): significant reductions in average neurite length
- average neurite length compared to no treatment control ([4]; phenoxodiol 10 μM in combination with Cisplatin and Paclitaxel, p<0.001): significant reductions in average neurite length
- cell and neurite toxicity in βIII-tubulin stained cells ([5]; phenoxodiol 10 μm): Significant cell and neurite toxicity

Source: patent US20100152284A1, “PREVENTION AND REVERSAL OF CHEMOTHERAPY-INDUCED PERIPHERAL NEUROPATHY” (NOVOGEN RESEARCH PTY LTD, priority 2006, published 2010)
